Test results as given in patent US6387886B1, “Method for the treatment of severe chronic bronchitis (bronchietasis) with an aerosolized antibiotic” (Chiron Corporation, priority 1998, dated 2002).
Read-outs that look alike come from different tables or passages of the source.

How the values were obtained:
P. aeruginosa [1] = settings: cited from earlier work
P. aeruginosa [2] = settings: CF patients, 300 mg inhaled twice daily, cited from earlier work
Gram-negative bacteria = settings: cited from earlier work
[3] = purulent sputum; cited from earlier work
P. aeruginosa [4] = assay: Placebo-controlled clinical study in bronchiectasis: sputum P. aeruginosa density and microbiological response; format: in vivo, Pseudomonas aeruginosa
Protocol: A placebo-controlled, double-blind, randomized study was conducted to evaluate the microbiological efficacy and safety of inhaled tobramycin for treatment of patients with bronchiectasis and P. aeruginosa. […] The change in P. aeruginosa density in sputum was measured at Weeks 2, 4, and 6 (2 weeks post-treatment). Clinicians assessed patients' general medical condition at Week 6. Safety parameters included adverse events, serum chemistry, and airway reactivity. […] At Week 6, P. aeruginosa was eradicated in 35% of TSI-treated patients but was detected in all placebo patients. […] Few patients withdrew due to adverse events. TSI holds promise as a therapy for patients with bronchiectasis. The study was conducted as follows: […] Patients were excluded if they had CF, a diagnosis of allergic bronchopulmonary aspergillosis, an acute pulmonary process requiring medical intervention as indicated by a new infiltrate on a chest radiograph, significant recent hemoptysis, or had received antibiotics within two weeks of the screening visit. Eligible patients were randomly assigned in blocks of two to parallel groups at each study center to receive either TSI or placebo. […] At all study visits, vital signs were measured, adverse events were recorded, and a sputum sample was collected for quantitative microbiology and susceptibility testing. […] At Week 4, airway reactivity was again monitored, a medical exam was performed, and laboratory tests that were performed at screening were repeated. […] The primary efficacy endpoint was the change in P. aeruginosa density (expressed as log10 CFU/g sputum) from baseline to Week 4. […] (2) an investigator's assessment of change in the patient's general medical condition (“improved” or “not improved”) throughout the study (recorded at Week 6); (3) the percent change in FEV1% predicted and in forced vital capacity (FVC) % predicted from Week 0 to Week 4. […] P. aeruginosa was considered eradicated if it was not detected at Week 6 or if the patient was unable to produce a sputum sample at Week 6 and P. aeruginosa was not isolated at Week 4. […]

P. aeruginosa isolates = settings: initial sputum cultures, CF patients, 1993; cited from earlier work
[5] = 71 CF patients, 600 mg tid aerosolized

NC[C@H]1O[C@H](O[C@H]2[C@H](O)[C@@H](O[C@H]3O[C@H](CO)[C@@H](O)[C@H](N)[C@H]3O)[C@H](N)C[C@@H]2N)[C@H](N)C[C@@H]1O [tobramycin]
spirometry (P. aeruginosa [1]; [5]): improved spirometry
sputum density of P. aeruginosa (P. aeruginosa [1]; [5]): significant reduction
emergence of P. aeruginosa strains highly resistant to tobramycin (MIC >128 μg/mL) (P. aeruginosa [1]; versus placebo): comparable in the placebo and treatment groups
average decrease in P. aeruginosa density (P. aeruginosa [2]; 28 days on/28 days off, Week 0 to Week 20): 0.8 log10
average decrease in P. aeruginosa density (P. aeruginosa [2]; Week 0 to Week 4): 1.9 log10
concentrations effective in inhibiting the growth of many Gram-negative bacteria (Gram-negative bacteria): < 4 µg/mL
higher concentrations required in the sputum to overcome inhibitory effects [3]: 5-10 ×
antimicrobial efficacy relative to cystic fibrosis patients (P. aeruginosa [4]; bronchiectasis versus cystic fibrosis): greater than 10,000 fold
factor by which colony forming units (CFU) of P. aeruginosa are decreased (P. aeruginosa [4]; in some patients, endobronchial administration): ≥ 10^6
bronchiectasis patients with complete eradication (P. aeruginosa [4]; summary statement): 20%
isolates with MICs <16 μg/mL (P. aeruginosa isolates): 90%
isolates with MICs ≦128 μg/mL (P. aeruginosa isolates): 98%
